The results in this text go back to patent US20250312341A1, “METHODS FOR TREATING PATIENTS WITH LOCALLY ADVANCED AND/OR METASTATIC SOLID TUMORS USING A DGK ZETA INHIBITOR” (ASTELLAS PHARMA INC., priority 2022, published 2025).

A short description of series [1]: 4-week repeated dose toxicity study in rats. It counts as in vivo. The method, then:
(§1) Compound I has been tested in numerous preclinical studies. Data from the 4-week repeated dose toxicity study in rats and 4-week repeated dose toxicity study in cynomolgus monkeys determined STD10 in rats to be 30 mg/kg/day and the HNSTD in cynomolgus monkeys to be 3 mg/kg/day. Human equivalent doses based on body surface area conversion (conversion factors: 0.16 for rat, 0.32 for monkey) of the STD10 in rats and the HNSTD in cynomolgus monkeys are 4.8 mg/kg and 0.96 mg/kg, respectively. For a person of 60 kg body weight, one tenth of the rat STD10 is 28.8 mg (4.8 mg/kg× 1/10×60 kg) and one sixth of the HNSTD is 9.6 mg (0.96 mg/kg×⅙×60 kg). Cynomolgus monkey is the more sensitive species. Therefore, based on cynomolgus monkey HNSTD, the starting dose in human is judged to be 9.6 mg/participant once daily (QD) given orally (actual starting dose will be 10 mg based on 10 mg tablet strength).

Series [2] can be described thus: 4-week repeated dose toxicity study in cynomolgus monkeys. The format is in vivo. The method, then:
as §1

In series [3] the target is DGKζ (Homo sapiens, UniProt Q13574). In words: Nonclinical pharmacology: inhibition of DGKζ activity. The format is biochemical. The settings on record: nonclinical pharmacology studies.
Series [4] deals with T cell. In words: Nonclinical pharmacology: DAG downstream pathway and T cell activation upon TCR stimulation. The format is cell-based.
In series [5] the test system is syngeneic mouse models (inflamed tumor and TIL-poor tumor models). Kind of series: Antitumor efficacy in syngeneic mouse tumor models. The format is in vivo.
In series [6] the test system is peripheral blood mononuclear cells (PBMCs). Kind of series: Preclinical in vitro CD69 expression by PBMCs after TCR mediated stimulation. It counts as cell-based. The following applies: after the TCR mediated stimulation. The text has this: The whole blood samples will be collected from the treated patients to evaluate pharmacodynamics effects of the Compound I. The preclinical in vitro studies have identified CD69 expression by peripheral blood mononuclear cells (PBMCs) as the best pharmacodynamic biomarker candidate. The CD69 is early activation biomarker expressed by many immune cells including T-cells. […] To evaluate the pharmacodynamics effect of Compound I, the PBMCs will be isolated and stimulated in vitro by CD3/CD28; the expression of the CD69 will be measured by flow cytometry.

A short description of series [7]: Nonclinical safety assessments. It counts as in vivo.

Sequence of DGKζ (Q13574 whole entry, species assumed): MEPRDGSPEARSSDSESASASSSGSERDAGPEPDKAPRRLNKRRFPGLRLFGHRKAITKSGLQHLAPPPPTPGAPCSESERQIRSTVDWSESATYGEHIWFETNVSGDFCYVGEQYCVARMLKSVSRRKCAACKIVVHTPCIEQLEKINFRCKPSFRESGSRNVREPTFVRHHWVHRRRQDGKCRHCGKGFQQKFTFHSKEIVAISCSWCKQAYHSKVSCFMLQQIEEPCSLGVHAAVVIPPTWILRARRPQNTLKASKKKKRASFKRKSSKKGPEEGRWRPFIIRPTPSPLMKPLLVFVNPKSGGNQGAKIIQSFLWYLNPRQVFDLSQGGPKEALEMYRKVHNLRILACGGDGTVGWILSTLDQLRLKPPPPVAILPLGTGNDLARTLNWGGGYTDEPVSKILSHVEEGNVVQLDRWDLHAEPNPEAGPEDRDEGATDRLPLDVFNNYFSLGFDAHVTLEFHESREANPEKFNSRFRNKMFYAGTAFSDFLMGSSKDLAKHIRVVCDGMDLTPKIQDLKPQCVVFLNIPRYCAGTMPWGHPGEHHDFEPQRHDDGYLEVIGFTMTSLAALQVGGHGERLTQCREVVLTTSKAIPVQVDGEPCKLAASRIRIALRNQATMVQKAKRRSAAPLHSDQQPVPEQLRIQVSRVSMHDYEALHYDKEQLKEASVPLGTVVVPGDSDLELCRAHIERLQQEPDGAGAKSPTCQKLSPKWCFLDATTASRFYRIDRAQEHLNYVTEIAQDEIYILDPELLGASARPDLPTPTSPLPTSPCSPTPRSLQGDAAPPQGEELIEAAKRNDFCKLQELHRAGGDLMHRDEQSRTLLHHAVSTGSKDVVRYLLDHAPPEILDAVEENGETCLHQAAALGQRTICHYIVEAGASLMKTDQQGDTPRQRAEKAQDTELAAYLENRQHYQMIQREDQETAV

Regarding `CNC[C@H]1CN(c2c(NC(=O)c3ccn(-c4ccnnc4)n3)ccc(Oc3ccccc3F)c2C(F)(F)F)CCN1C` [Compound I, N-[4-(2-Fluorophenoxy)-2-{(3S)-4-methyl-3-[(methylamino)methyl]piperazin-1-yl}-3-(trifluoromethyl)phenyl]-1-(pyridazin-4-yl)-1H-pyrazole-3-carboxamide], the “Human equivalent dose of the STD10 in rats” value in series [1] (body surface area conversion, factor 0.16 for rat) was determined as 4.8 mg/kg. This compound also showed an STD10 in series [1] (rats, 4-week repeated dose) of 30 mg/kg/day. In series [2] (body surface area conversion, factor 0.32 for monkey), the “Human equivalent dose of the HNSTD in cynomolgus monkeys” value is 0.96 mg/kg. Further, the HNSTD in series [2] (cynomolgus monkeys, 4-week repeated dose) is recorded as 3 mg/kg/day. Moreover, in series [3], the DGKζ activity entry is “inhibits DGKζ activity”. In addition, the “activation of DAG downstream pathways and T cell activation” value in series [4] is recorded as “enhances activation of DAG downstream pathways as well as T cell activation”. Besides, the Anti-tumor efficacy result in series [5] (anti-PD-1 poor-responsive syngeneic mouse models as well as responsive models) is on record as “demonstrated”. Moreover, the antitumor efficacy entry in series [5] (oral administration, inflamed tumor and TIL-poor tumor models) was “demonstrated antitumor efficacy”. For the same compound, in series [6], the “expression of CD69” value is “induces increased expression of CD69”. In addition, in series [7], the nonclinical safety findings result was “risk of effect on body weight, gastrointestinal tract, electrocardiogram (ECG) parameters, hemodynamic and body temperature, lymphohematopoietic system and reproductive toxicity”.
